Test results from US12240844B2 (Voronoi, Inc., priority 2019, dated 2025).

Columns and labels:
[1] = target: T1, LRRK2, LRRK2 (G2019S), DYRK1, CLK1 and TTK kinases (Homo sapiens, UniProt Q13627); test: Enzyme IC50 by Kinase HotSpot service (Reaction Biology Corporation), values marked with *; type: biochemical; conditions: DYRK1, ATP 10 uM
T1 construct: other: DYRK1; Kinase HotSpot service (Reaction Biology), ATP 10 uM
Method in brief: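 Radiometric-service kinase assays (Reaction Biology HotSpot protocol) run at 10 uM ATP under uniform conditions. Compounds tested as 3-fold dilution series from a top concentration of […] to give IC50.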

LRRK2 (G2019S) = LRRK2 (G2019S) (Homo sapiens, UniProt Q5S007, G2019S); test: scanMAX Kinase panel (DiscoverX), % control; type: binding; parameters: purchased DiscoverX; conditions: <35% = active
Procedure: (§1) Specifically, for Examples 162, 160, 105, 217, 205, 96, 207, 184, 206, 221, 238, and 237 selected among the example compounds of the present invention, it was decided to measure enzyme (kinase) selectivity by DiscoverX, and the experiment was conducted using a panel for scanMAX™ Kinase analysis. At this time, the concentration of the drug treated with the enzyme was 1 uM in DMSO, the control percentage (% control) was determined in the same way as in Equation 1 below, and the results were shown in Table 6 below. [formula] Here, the positive control refers to a compound showing a control percentage of 0%, and the negative control is DMSO, indicating a control percentage of 100%. Also, in the enzyme selectivity of the present invention, if the control percentage for each enzyme was <35% (i.e., less than 35%), it was determined to have activity against the relevant enzyme.

LRRK2 = LRRK2 (Homo sapiens, UniProt Q5S007); test: scanMAX Kinase panel (DiscoverX), % control; type: binding; parameters: purchased DiscoverX; conditions: <35% = active
Procedure: as §1

TTK = target: T2, TTK (Homo sapiens, UniProt P33981); test: scanMAX Kinase panel (DiscoverX), % control; type: binding; parameters: purchased DiscoverX; conditions: <35% = active
T2 sequence (P33981 1-857): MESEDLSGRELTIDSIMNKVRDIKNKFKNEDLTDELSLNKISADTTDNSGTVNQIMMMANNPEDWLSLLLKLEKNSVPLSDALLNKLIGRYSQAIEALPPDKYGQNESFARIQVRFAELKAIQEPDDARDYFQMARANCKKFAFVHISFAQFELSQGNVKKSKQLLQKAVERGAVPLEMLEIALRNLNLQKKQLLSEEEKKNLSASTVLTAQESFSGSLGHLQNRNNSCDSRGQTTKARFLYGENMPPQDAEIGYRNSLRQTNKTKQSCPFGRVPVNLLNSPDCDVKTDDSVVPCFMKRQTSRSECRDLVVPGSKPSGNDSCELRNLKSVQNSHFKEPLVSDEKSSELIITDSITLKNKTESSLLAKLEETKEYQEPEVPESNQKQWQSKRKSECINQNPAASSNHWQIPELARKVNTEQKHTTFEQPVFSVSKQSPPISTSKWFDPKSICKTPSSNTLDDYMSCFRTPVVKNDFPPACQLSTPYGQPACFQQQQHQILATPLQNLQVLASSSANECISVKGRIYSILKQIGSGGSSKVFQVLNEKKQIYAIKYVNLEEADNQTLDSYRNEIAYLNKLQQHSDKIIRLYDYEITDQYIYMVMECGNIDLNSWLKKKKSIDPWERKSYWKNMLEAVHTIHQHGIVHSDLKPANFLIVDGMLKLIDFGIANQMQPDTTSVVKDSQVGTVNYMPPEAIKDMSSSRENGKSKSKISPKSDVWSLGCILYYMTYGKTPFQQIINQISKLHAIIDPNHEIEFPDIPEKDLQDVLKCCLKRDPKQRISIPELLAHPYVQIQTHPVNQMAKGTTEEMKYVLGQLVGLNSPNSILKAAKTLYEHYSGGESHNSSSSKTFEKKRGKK
Procedure: as §1

CLK4 = target: T3, CLK4 (Homo sapiens, UniProt Q9HAZ1); test: scanMAX Kinase panel (DiscoverX), % control; type: binding; conditions: <35% = active
T3 construct: purchased DiscoverX
Procedure: as §1

ALK (L1196M) = target: T4, ALK (L1196M) (Homo sapiens, UniProt Q9UM73, L1196M); test: scanMAX Kinase panel (DiscoverX), % control; type: binding; conditions: <35% = active
T4 construct: purchased DiscoverX
Procedure: as §1

CLK1 = target: T5, CLK1 (Homo sapiens, UniProt P49759); test: scanMAX Kinase panel (DiscoverX), % control; type: binding; conditions: <35% = active
T5 construct: purchased DiscoverX
Procedure: as §1

ALK = target: T6, ALK (Homo sapiens, UniProt Q9UM73); test: scanMAX Kinase panel (DiscoverX), % control; type: binding; conditions: <35% = active
T6 construct: purchased DiscoverX
Procedure: as §1

CLK3 = target: T7, CLK3 (Homo sapiens, UniProt P49761); test: scanMAX Kinase panel (DiscoverX), % control; type: binding; conditions: <35% = active
T7 construct: purchased DiscoverX
Procedure: as §1

DYRK1B = target: T8, DYRK1B (Homo sapiens, UniProt Q9Y463); test: scanMAX Kinase panel (DiscoverX), % control; type: binding; conditions: <35% = active
T8 construct: purchased DiscoverX
Procedure: as §1

T7 sequence (P49761 whole entry): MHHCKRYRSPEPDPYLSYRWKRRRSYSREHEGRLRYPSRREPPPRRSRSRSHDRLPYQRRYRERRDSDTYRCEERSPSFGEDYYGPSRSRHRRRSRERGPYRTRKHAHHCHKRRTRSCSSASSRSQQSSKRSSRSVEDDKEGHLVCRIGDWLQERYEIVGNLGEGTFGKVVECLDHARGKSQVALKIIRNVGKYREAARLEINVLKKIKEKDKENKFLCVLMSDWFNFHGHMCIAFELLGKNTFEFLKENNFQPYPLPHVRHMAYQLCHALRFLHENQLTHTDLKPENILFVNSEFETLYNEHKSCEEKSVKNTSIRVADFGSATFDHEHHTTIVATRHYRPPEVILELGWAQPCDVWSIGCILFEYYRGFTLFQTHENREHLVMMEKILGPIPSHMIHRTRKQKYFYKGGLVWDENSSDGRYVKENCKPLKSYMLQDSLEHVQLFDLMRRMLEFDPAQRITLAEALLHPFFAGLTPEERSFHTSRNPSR
T4 sequence (Q9UM73 19-1620 L1196M): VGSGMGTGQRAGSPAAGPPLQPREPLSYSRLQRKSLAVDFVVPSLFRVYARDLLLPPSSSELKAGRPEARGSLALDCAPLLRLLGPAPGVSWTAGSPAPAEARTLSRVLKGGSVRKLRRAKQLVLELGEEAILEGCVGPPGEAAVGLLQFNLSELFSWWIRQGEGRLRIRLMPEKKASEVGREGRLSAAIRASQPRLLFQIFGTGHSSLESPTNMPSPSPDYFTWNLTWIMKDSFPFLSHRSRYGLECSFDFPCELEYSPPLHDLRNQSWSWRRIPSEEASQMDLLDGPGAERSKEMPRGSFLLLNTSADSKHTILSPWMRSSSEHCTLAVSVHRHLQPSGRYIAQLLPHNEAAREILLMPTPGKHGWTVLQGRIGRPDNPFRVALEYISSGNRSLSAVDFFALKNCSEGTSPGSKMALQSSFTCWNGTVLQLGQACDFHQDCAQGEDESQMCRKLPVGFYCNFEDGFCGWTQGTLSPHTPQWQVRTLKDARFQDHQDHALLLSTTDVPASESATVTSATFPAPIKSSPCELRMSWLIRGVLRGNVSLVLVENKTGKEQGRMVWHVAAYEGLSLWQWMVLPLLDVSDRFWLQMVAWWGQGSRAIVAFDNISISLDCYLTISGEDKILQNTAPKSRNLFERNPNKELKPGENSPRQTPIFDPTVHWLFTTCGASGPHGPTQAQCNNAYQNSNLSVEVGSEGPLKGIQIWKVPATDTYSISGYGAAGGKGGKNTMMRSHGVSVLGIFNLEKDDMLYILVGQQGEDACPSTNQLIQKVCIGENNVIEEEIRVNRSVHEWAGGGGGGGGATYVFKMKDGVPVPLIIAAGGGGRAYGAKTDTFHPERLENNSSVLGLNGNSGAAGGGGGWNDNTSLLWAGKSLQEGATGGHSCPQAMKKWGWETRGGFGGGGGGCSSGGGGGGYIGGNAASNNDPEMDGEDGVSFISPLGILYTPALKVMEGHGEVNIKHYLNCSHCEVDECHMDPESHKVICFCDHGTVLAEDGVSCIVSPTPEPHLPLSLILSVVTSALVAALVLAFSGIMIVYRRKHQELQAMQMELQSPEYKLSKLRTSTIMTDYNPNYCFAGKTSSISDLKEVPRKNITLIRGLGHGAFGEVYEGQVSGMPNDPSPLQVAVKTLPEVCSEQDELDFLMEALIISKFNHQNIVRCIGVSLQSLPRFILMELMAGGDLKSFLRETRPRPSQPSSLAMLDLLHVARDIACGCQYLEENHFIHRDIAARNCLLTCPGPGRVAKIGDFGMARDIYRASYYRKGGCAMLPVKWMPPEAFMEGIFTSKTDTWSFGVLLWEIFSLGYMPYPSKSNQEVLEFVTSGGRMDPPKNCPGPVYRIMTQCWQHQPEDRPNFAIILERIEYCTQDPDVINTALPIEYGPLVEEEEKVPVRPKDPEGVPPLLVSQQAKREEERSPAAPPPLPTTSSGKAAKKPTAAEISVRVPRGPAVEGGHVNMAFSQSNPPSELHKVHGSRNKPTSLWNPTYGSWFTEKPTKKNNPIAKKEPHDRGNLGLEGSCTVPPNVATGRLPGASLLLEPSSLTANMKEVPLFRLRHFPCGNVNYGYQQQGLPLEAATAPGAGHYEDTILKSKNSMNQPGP
T8 sequence (Q9Y463 whole entry): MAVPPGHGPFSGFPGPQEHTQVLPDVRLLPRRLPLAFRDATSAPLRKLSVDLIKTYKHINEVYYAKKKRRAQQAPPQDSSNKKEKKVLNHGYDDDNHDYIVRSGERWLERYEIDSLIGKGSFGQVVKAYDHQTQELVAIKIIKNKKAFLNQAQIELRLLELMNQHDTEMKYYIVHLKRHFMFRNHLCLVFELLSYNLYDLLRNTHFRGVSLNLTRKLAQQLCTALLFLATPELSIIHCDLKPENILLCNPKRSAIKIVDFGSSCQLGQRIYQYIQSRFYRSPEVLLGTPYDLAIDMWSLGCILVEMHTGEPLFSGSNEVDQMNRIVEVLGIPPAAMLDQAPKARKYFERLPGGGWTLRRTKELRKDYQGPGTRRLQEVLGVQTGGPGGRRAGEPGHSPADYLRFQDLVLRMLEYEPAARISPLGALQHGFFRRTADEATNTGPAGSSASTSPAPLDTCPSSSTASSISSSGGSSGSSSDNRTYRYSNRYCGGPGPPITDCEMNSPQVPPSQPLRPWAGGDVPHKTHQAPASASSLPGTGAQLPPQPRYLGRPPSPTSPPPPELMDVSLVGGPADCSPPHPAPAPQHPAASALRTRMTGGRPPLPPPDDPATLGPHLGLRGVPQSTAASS
T3 sequence (Q9HAZ1 whole entry): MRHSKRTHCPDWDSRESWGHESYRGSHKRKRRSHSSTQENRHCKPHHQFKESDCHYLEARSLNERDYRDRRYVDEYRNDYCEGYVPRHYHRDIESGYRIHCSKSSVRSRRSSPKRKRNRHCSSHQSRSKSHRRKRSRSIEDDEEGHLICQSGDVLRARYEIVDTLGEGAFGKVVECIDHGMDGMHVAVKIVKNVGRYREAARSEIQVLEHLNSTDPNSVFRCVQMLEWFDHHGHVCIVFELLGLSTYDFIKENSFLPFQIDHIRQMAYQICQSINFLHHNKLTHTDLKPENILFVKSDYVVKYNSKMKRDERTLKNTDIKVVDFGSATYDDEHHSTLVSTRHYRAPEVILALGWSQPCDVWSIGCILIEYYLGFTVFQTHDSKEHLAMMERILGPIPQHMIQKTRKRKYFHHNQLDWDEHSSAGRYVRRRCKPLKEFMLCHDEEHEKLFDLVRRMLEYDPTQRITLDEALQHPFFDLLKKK
T6 sequence (Q9UM73 19-1620): as the sequence (Q9UM73 19-1620 L1196M) above, with M1178L counted along it
T5 sequence (P49759 whole entry): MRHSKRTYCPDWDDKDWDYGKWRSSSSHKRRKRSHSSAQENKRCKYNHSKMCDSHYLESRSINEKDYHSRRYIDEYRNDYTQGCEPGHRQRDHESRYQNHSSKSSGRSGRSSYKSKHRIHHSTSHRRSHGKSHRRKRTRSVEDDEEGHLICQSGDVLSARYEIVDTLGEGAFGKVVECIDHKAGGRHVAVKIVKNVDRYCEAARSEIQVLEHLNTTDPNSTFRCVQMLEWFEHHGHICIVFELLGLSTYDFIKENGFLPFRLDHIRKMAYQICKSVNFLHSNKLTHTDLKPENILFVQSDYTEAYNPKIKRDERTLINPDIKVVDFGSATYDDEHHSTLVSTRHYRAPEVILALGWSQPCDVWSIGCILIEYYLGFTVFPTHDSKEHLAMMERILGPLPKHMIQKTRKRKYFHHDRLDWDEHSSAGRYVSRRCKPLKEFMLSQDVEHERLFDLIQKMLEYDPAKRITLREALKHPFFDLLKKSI

Structure (SMILES)	IC50 [1] [µM]	remaining binding at 1 µM (LRRK2 (G2019S)) [%]	remaining binding at 1 µM (LRRK2) [%]	remaining binding at 1 µM (TTK) [%]	remaining binding at 1 µM (CLK4) [%]	remaining binding at 1 µM (ALK (L1196M)) [%]	remaining binding at 1 µM (CLK1) [%]	remaining binding at 1 µM (ALK) [%]	remaining binding at 1 µM (CLK3) [%]	remaining binding at 1 µM (DYRK1B) [%]
O=C(c1ccc(Nc2cc(C3CC3)c3c(C(F)(F)F)c[nH]c3n2)c2c1CCO2)N1CC[C@H](N2CCOCC2)C1 [Example 237, (S)-(7-((4-cyclopropyl-3-(trifluoromethyl)-1H-pyrrolo[2,3-b]pyridin-6-yl)amino)-2,3-dihydrobenzofuran-4-yl)(3-morpholinopyrrolidin-1-yl)methanone]	< 0.1	31	36	3.5	0.55	15	3.6	14	58	1.4
O=C(c1ccc(Nc2cc(C3CC3)c3c(C(F)(F)F)c[nH]c3n2)c2c1CCO2)N1CC[C@@H](N2CCOCC2)C1 [Example 238, (R)-(7-((4-cyclopropyl-3-(trifluoromethyl)-1H-pyrrolo[2,3-b]pyridin-6-yl)amino)-2,3-dihydrobenzofuran-4-yl)(3-morpholinopyrrolidin-1-yl)methanone]	< 0.1	38	48	4.1	0.35	58	2.4	67	56	0.7
